This note sets out measurements from patent publication US20200354426A1 (MEDIMMUNE LIMITED, priority 2016, published 2020).

Holding throughout (experiment): cAMP activity assay in assay medium (assay 1)
Holding throughout (assay type): cell-based

One assay has as its target T1, Human GlucR (Homo sapiens, UniProt P47871).
T1 construct: expressed in transfected cells
As to conditions: assay medium; Table 4; read-out: hGlucR EC50. From the text:
(§1) Biological Activity of Peptides in Cell-Based cAMP Activity Assay (Assay 1):
(§2) All sample dilutions were made in duplicate.

A further assay addresses T2, Human GIPr (Homo sapiens, UniProt P48546).
T2 construct: expressed in transfected cells
T2 sequence (P48546 22-466): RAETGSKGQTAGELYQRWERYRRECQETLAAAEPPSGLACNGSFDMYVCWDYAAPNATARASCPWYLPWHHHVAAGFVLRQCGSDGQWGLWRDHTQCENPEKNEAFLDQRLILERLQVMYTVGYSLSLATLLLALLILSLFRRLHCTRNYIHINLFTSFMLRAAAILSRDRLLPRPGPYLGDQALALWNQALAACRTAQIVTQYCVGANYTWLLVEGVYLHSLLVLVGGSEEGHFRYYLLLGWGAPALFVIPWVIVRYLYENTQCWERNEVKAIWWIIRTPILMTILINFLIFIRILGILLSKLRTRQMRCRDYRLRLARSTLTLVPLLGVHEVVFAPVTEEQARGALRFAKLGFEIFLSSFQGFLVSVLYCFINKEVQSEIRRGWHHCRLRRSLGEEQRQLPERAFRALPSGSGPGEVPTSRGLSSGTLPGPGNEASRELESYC
As to conditions: assay medium; Table 4; read-out: hGIPR EC50.
From the text: as §1, §2

In a further assay the target is Human GLP1R (Homo sapiens, UniProt P43220). Details: expressed in transfected cells. Conditions: assay medium; Table 4; read-out: hGLP1R EC50.
Chain of Human GLP1R (P43220 24-463): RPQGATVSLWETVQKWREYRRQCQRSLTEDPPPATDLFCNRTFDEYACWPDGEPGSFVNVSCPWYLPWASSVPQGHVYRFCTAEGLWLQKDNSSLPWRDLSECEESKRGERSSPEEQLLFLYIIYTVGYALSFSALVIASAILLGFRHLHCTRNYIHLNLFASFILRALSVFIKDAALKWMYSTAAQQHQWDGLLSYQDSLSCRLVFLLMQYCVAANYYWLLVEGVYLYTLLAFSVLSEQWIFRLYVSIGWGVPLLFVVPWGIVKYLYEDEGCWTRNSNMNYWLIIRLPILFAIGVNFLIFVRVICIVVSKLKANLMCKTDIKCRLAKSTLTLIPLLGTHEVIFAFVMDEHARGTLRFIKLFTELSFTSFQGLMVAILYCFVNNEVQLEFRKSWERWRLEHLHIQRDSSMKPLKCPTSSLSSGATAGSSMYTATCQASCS
From the text: as §1, §2

Peptide text beside a SMILES is read from it. * marks the point of attachment. Palmitoyl = CCCCCCCCCCCCCCCC(=O)*

For orientation: EC50 means the concentration giving half of the maximal effect.

T1 sequence (P47871 26-477): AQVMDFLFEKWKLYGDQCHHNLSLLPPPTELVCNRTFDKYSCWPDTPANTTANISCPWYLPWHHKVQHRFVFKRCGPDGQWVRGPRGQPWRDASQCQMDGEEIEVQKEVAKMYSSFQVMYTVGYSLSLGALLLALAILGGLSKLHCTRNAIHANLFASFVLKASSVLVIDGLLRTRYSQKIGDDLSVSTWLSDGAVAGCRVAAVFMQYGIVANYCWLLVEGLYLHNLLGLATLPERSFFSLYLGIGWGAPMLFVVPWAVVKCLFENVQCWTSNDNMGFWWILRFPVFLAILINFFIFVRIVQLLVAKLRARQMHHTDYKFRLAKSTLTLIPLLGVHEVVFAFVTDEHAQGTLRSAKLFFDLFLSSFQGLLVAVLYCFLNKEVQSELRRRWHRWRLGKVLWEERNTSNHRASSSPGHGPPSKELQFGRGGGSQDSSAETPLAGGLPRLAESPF

In the case of `CC(C)C[C@H](NC(=O)[C@H](Cc1ccc(O)cc1)NC(=O)[C@H](CCCCN)NC(=O)[C@H](CO)NC(=O)[C@H](Cc1ccc(O)cc1)NC(=O)[C@H](CC(=O)O)NC(=O)[C@H](CO)NC(=O)[C@@H](NC(=O)[C@H](Cc1ccccc1)NC(=O)[C@@H](NC(=O)CNC(=O)[C@H](CCC(N)=O)NC(=O)[C@H](CO)NC(=O)[C@@H](N)Cc1c[nH]cn1)[C@@H](C)O)[C@@H](C)O)C(=O)N[C@@H](CC(=O)O)C(=O)N[C@@H](CO)C(=O)N[C@@H](CCCNC(=N)N)C(=O)N[C@@H](CCCNC(=N)N)C(=O)N[C@@H](C)C(=O)N[C@@H](CCC(N)=O)C(=O)N[C@@H](CC(=O)O)C(=O)N[C@@H](Cc1ccccc1)C(=O)N[C@H](C(=O)N[C@@H](CCC(N)=O)C(=O)N[C@@H](Cc1c[nH]c2ccccc12)C(=O)N[C@@H](CC(C)C)C(=O)N[C@H](C(=O)N[C@@H](CCCNC(=N)N)C(=O)NCC(=O)NCC(=O)N[C@@H](CO)C(=O)N[C@@H](CO)C(=O)NCC(=O)NCC(=O)N[C@@H](CO)C(=O)N[C@@H](CO)C(N)=O)C(C)C)C(C)C` [g316], the figures for the half-maximal effective concentration (EC50) at Human GlucR, on Human GIPr and on Human GLP1R were 10.6 pM, 3.65 nM and 0.0314 nM, respectively.

Turning to `CCCCCCCCCCCCCCCC(=O)NCCCC[C@H](NC(=O)[C@H](CO)NC(=O)[C@@H]1CCCN1C(=O)[C@@H]1CCCN1C(=O)[C@@H]1CCCN1C(=O)[C@H](C)NC(=O)CNC(=O)[C@H](CO)NC(=O)[C@H](CO)NC(=O)[C@@H]1CCCN1C(=O)CNC(=O)CNC(=O)[C@H](CCCNC(=N)N)NC(=O)[C@@H](NC(=O)[C@H](CC(C)C)NC(=O)[C@H](Cc1c[nH]c2ccccc12)NC(=O)[C@H](CCC(N)=O)NC(=O)[C@@H](NC(=O)[C@H](Cc1ccccc1)NC(=O)[C@H](CC(=O)O)NC(=O)[C@H](CCC(N)=O)NC(=O)[C@H](C)NC(=O)[C@H](CCCNC(=N)N)NC(=O)[C@H](CCCNC(=N)N)NC(=O)[C@H](CO)NC(=O)[C@H](CC(=O)O)NC(=O)[C@H](CC(C)C)NC(=O)[C@H](Cc1ccc(O)cc1)NC(=O)[C@H](CCCCN)NC(=O)[C@H](CO)NC(=O)[C@H](Cc1ccc(O)cc1)NC(=O)[C@H](CC(=O)O)NC(=O)[C@H](CO)NC(=O)[C@@H](NC(=O)[C@H](Cc1ccccc1)NC(=O)[C@@H](NC(=O)CNC(=O)[C@H](CCC(N)=O)NC(=O)[C@H](CO)NC(=O)[C@@H](N)Cc1c[nH]cn1)[C@@H](C)O)[C@@H](C)O)C(C)C)C(C)C)C(N)=O` [g320] (H-HSQGTFTSDYSKYLDSRRAQDFVQWLVRGGPSSGAPPPSK(Palmitoyl)-NH2; N-terminus assumed), the EC50 worked out at 3.2 pM on Human GlucR, 1.01 nM on Human GIPr and 0.00938 nM at Human GLP1R.

For the compound `CCCCCCCCCCCCCCCC(=O)NCCCC[C@H](NC(=O)[C@H](C)NC(=O)[C@@H](NC(=O)[C@H](CC(N)=O)NC(=O)[C@H](CC(N)=O)NC(=O)[C@H](CCCNC(=N)N)NC(=O)[C@H](CC(N)=O)NC(=O)[C@H](CC(N)=O)NC(=O)[C@H](CCCCN)NC(=O)CNC(=O)CNC(=O)[C@H](CCCNC(=N)N)NC(=O)[C@@H](NC(=O)[C@H](CC(C)C)NC(=O)[C@H](Cc1c[nH]c2ccccc12)NC(=O)[C@H](CCC(N)=O)NC(=O)[C@@H](NC(=O)[C@H](Cc1ccccc1)NC(=O)[C@H](CC(=O)O)NC(=O)[C@H](CCC(N)=O)NC(=O)[C@H](C)NC(=O)[C@H](CCCNC(=N)N)NC(=O)[C@H](CCCNC(=N)N)NC(=O)[C@H](CO)NC(=O)[C@H](CC(=O)O)NC(=O)[C@H](CC(C)C)NC(=O)[C@H](Cc1ccc(O)cc1)NC(=O)[C@H](CCCCN)NC(=O)[C@H](CO)NC(=O)[C@H](Cc1ccc(O)cc1)NC(=O)[C@H](CC(=O)O)NC(=O)[C@H](CO)NC(=O)[C@@H](NC(=O)[C@H](Cc1ccccc1)NC(=O)[C@@H](NC(=O)CNC(=O)[C@H](CCC(N)=O)NC(=O)[C@H](CO)NC(=O)[C@@H](N)Cc1c[nH]cn1)[C@@H](C)O)[C@@H](C)O)C(C)C)C(C)C)[C@@H](C)CC)C(N)=O` [g322] (H-HSQGTFTSDYSKYLDSRRAQDFVQWLVRGGKNNRNNIAK(Palmitoyl)-NH2; N-terminus assumed), the EC50 stood at 3.55 pM at Human GlucR, 1.72 nM at Human GIPr and 0.0106 nM on Human GLP1R.

For `CCCCCCCCCCCCCCCC(=O)NCCCC[C@H](NC(=O)CNC(=O)CNC(=O)CNC(=O)CNC(=O)CNC(=O)CNC(=O)[C@H](CCCNC(=N)N)NC(=O)[C@@H](NC(=O)[C@H](CC(C)C)NC(=O)[C@H](Cc1c[nH]c2ccccc12)NC(=O)[C@H](CCC(N)=O)NC(=O)[C@@H](NC(=O)[C@H](Cc1ccccc1)NC(=O)[C@H](CC(=O)O)NC(=O)[C@H](CCC(N)=O)NC(=O)[C@H](C)NC(=O)[C@H](CCCNC(=N)N)NC(=O)[C@H](CCCNC(=N)N)NC(=O)[C@H](CO)NC(=O)[C@H](CC(=O)O)NC(=O)[C@H](CC(C)C)NC(=O)[C@H](Cc1ccc(O)cc1)NC(=O)[C@H](CCCCN)NC(=O)[C@H](CO)NC(=O)[C@H](Cc1ccc(O)cc1)NC(=O)[C@H](CC(=O)O)NC(=O)[C@H](CO)NC(=O)[C@@H](NC(=O)[C@H](Cc1ccccc1)NC(=O)[C@@H](NC(=O)CNC(=O)[C@H](CCC(N)=O)NC(=O)[C@H](CO)NC(=O)[C@@H](N)Cc1c[nH]cn1)[C@@H](C)O)[C@@H](C)O)C(C)C)C(C)C)C(N)=O` [g326], the concentration for a half-maximal effect (EC50) at Human GlucR came to 2.82 pM; at Human GIPr it was 12.6 nM; on Human GLP1R it was 0.0247 nM.

Consider `CCCCCCCCCCCCCCCC(=O)N[C@@H](CCC(=O)NCCCC[C@H](NC(=O)CNC(=O)CNC(=O)CNC(=O)CNC(=O)CNC(=O)CNC(=O)[C@H](CCCNC(=N)N)NC(=O)[C@@H](NC(=O)[C@H](CC(C)C)NC(=O)[C@H](Cc1c[nH]c2ccccc12)NC(=O)[C@H](CCC(N)=O)NC(=O)[C@@H](NC(=O)[C@H](Cc1ccccc1)NC(=O)[C@H](CC(=O)O)NC(=O)[C@H](CCC(N)=O)NC(=O)[C@H](C)NC(=O)[C@H](CCCNC(=N)N)NC(=O)[C@H](CCCNC(=N)N)NC(=O)[C@H](CO)NC(=O)[C@H](CC(=O)O)NC(=O)[C@H](CC(C)C)NC(=O)[C@H](Cc1ccc(O)cc1)NC(=O)[C@H](CCCCN)NC(=O)[C@H](CO)NC(=O)[C@H](Cc1ccc(O)cc1)NC(=O)[C@H](CC(=O)O)NC(=O)[C@H](CO)NC(=O)[C@@H](NC(=O)[C@H](Cc1ccccc1)NC(=O)[C@@H](NC(=O)CNC(=O)[C@H](CCC(N)=O)NC(=O)[C@H](CO)NC(=O)[C@@H](N)Cc1c[nH]cn1)[C@@H](C)O)[C@@H](C)O)C(C)C)C(C)C)C(N)=O)C(=O)O` [g327], for which the half-maximal effective concentration (EC50) is 2.32 pM on Human GlucR, 12.8 nM on Human GIPr and 0.0193 nM on Human GLP1R.

As to `CCCCCCCCCCCCCCCC(=O)N[C@@H](CCC(=O)NCCCC[C@H](NC(=O)[C@H](CO)NC(=O)[C@H](CC(=O)O)NC(=O)[C@H](CC(C)C)NC(=O)[C@H](Cc1ccc(O)cc1)NC(=O)[C@H](CCCCN)NC(=O)[C@H](CO)NC(=O)[C@H](Cc1ccc(O)cc1)NC(=O)[C@H](CC(=O)O)NC(=O)[C@H](CO)NC(=O)[C@@H](NC(=O)[C@H](Cc1ccccc1)NC(=O)[C@@H](NC(=O)CNC(=O)[C@H](CCC(N)=O)NC(=O)[C@H](CO)NC(=O)[C@@H](N)Cc1c[nH]cn1)[C@@H](C)O)[C@@H](C)O)C(=O)N[C@@H](CCCNC(=N)N)C(=O)N[C@@H](C)C(=O)N[C@@H](CCC(N)=O)C(=O)N[C@@H](CC(=O)O)C(=O)N[C@@H](Cc1ccccc1)C(=O)N[C@H](C(=O)N[C@@H](CCC(N)=O)C(=O)N[C@@H](Cc1c[nH]c2ccccc12)C(=O)N[C@@H](CC(C)C)C(=O)N[C@H](C(=O)N[C@@H](C)C(=O)NCC(=O)NCC(N)=O)C(C)C)C(C)C)C(=O)O` [g335], the results for the EC50 on Human GlucR, on Human GIPr and at Human GLP1R were 10.5 pM, 582 nM and 0.0733 nM, respectively.

Take `CCCCCCCCCCCCCCCC(=O)N[C@@H](CCC(=O)N[C@@H](CCC(=O)NCCCC[C@H](NC(=O)[C@H](CO)NC(=O)[C@H](CC(=O)O)NC(=O)[C@H](CC(C)C)NC(=O)[C@H](Cc1ccc(O)cc1)NC(=O)[C@H](CCCCN)NC(=O)[C@H](CO)NC(=O)[C@H](Cc1ccc(O)cc1)NC(=O)[C@H](CC(=O)O)NC(=O)[C@H](CO)NC(=O)[C@@H](NC(=O)[C@H](Cc1ccccc1)NC(=O)[C@@H](NC(=O)CNC(=O)[C@H](CCC(N)=O)NC(=O)[C@H](CO)NC(=O)[C@@H](N)Cc1c[nH]cn1)[C@@H](C)O)[C@@H](C)O)C(=O)N[C@@H](CCCNC(=N)N)C(=O)N[C@@H](C)C(=O)N[C@@H](CCC(N)=O)C(=O)N[C@@H](CC(=O)O)C(=O)N[C@@H](Cc1ccccc1)C(=O)N[C@H](C(=O)N[C@@H](CCC(N)=O)C(=O)N[C@@H](Cc1c[nH]c2ccccc12)C(=O)N[C@@H](CC(C)C)C(=O)N[C@H](C(=O)N[C@@H](C)C(=O)NCC(=O)NCC(N)=O)C(C)C)C(C)C)C(=O)O)C(=O)O` [g336]: the EC50 came to 1.77 pM on Human GlucR, 19.6 nM on Human GIPr and 0.0366 nM at Human GLP1R.
